Results published in patent US20220079895A1, “COMPOSITION FOR PREVENTING OR TREATING LIVER DISEASES” (AceBiomed, Inc., priority 2020, published 2022).

Columns and labels:
collagen I [1] = assay: expression of collagen I increased by TGF-β1 in hepatocytes AML12; type: cell-based, mouse; conditions: AML12 cells; for additive interaction with colchicine in inhibiting the expression of collagen I: 5 nM colchicine + 30 μg/ml DPP-4 inhibitor, TGF-β1 (5 ng/ml)
Description: (§1) Mouse hepatocytes, AML12 cells, were incubated at 37° C., 95% air and 5% CO2 in a DMEM/F12 medium containing 5 μg/ml insulin, 5 μg/ml transferrin, 5 ng/ml selenium, 40 ng/ml dexamethasone, 10% fetal bovine serum (FBS) and 1% penicillin/streptomycin. AML12 cells pre-treated with 5 nM of colchicine and 30 μg/ml of a dipeptidyl peptidase-4 (DPP-4) inhibitor were treated with TGF-β1 (5 ng/ml) or 0.2 mM of palmitate after 8 hours, and further incubated for additional 16 hours.
(§2) Total RNA was extracted using an RNeasy mini kit (Qiagen), and then synthesized into cDNA using a high-capacity cDNA reverse transcription kit (Thermo Fisher). The same amount of cDNA was amplified using a SYBR™ green PCR master mix and a 10 pM primer set for each gene. The amplification process was subjected to an initial denaturation process at 95° C. for 5 minutes, and repetitively replication at 95° C. for 10 seconds, 58.5° C. for 10 seconds, and 72° C. for 10 seconds for a total of 40 times.

SREBP1 [2] = assay: expression of SREBP1 induced by palmitate in hepatocytes AML12; type: cell-based, mouse; conditions: AML12 cells; for additive interaction with colchicine in inhibiting the expression of SREBP1: 5 nM colchicine + 30 μg/ml DPP-4 inhibitor, 0.2 mM palmitate
Description: as §1, §2

IL-1β [3] = assay: expression of IL-1β induced by palmitate in hepatocytes AML12; type: cell-based, mouse; conditions: AML12 cells
Description: as §1, §2

[4] = system: nonalcoholic steatohepatitis (NASH)-induced model mouse; assay: H&E staining of liver tissues, fat accumulation, NASH-induced model; type: in vivo; conditions: high fat diet 30 weeks
Description: For H&E staining, deparaffinized tissues were reacted with a 50% hematoxylin solution at room temperature for 20 minutes, reacted with 1% HCl for 1 second, and then immediately transferred to a 0.5% eosin solution and stained for 20 minutes. Thereafter, the tissue was washed with distilled water, reacted with graded alcohol and finally dehydrated with xylene. The dehydrated tissue was fixed on a coverslip using a permount.

NASH-induced model mouse [5] = assay: hydroxyproline in liver tissues, NASH-induced model; type: in vivo; conditions: high fat diet 30 weeks
Description: 100 mg of liver tissue was homogenized with physiological saline, and then a liver tissue supernatant was separated. The separated supernatant was hydrolyzed at 120° C. for 3 hours by adding the same amount of 12 N HCl. The cooled sample was vortexed and then centrifuged at 10,000 g for 3 minutes, and absorbance was measured at 550 nm using a final microplate reader by using a hydroxyproline assay kit.

TGF-β1 = assay: expression of fibrosis-related gene TGF-β1 in liver tissues, NASH-induced model; type: in vivo, mouse; conditions: high fat diet 30 weeks
Description: as §2

collagen I [6] = assay: expression of fibrosis-related gene collagen I in liver tissues, NASH-induced model; type: in vivo, mouse; conditions: high fat diet 30 weeks
Description: as §2

[7] = system: α-SMA (α-smooth muscle actin); assay: expression of fibrosis-related gene α-SMA in liver tissues, NASH-induced model; type: in vivo, mouse; conditions: high fat diet 30 weeks
Description: as §2

TNF-α = assay: expression of inflammation-related gene TNF-α in liver tissues, NASH-induced model; type: in vivo, mouse; conditions: high fat diet 30 weeks
Description: as §2

IL-1β [8] = assay: expression of inflammation-related gene IL-1β in liver tissues, NASH-induced model; type: in vivo, mouse; conditions: high fat diet 30 weeks
Description: as §2

IL-6 = assay: expression of inflammation-related gene IL-6 in liver tissues, NASH-induced model; type: in vivo, mouse; conditions: high fat diet 30 weeks
Description: as §2

SREBP1 [9] = assay: expression of fat accumulation-related gene SREBP1 in liver tissues, NASH-induced model; type: in vivo, mouse; conditions: high fat diet 30 weeks
Description: as §2

[10] = system: Dgat (Diglyceride acyltransferase); assay: expression of fat accumulation-related gene Dgat in liver tissues, NASH-induced model; type: in vivo, mouse; conditions: high fat diet 30 weeks
Description: as §2

[11] = system: ApoA1 (Apolipoprotein A1); assay: expression of fat accumulation-related gene ApoA1 in liver tissues, NASH-induced model; type: in vivo, mouse; conditions: high fat diet 30 weeks
Description: as §2

NASH-induced model mouse [12] = assay: superoxide (DHE) in liver tissues, NASH-induced model; type: in vivo; conditions: high fat diet 30 weeks
Description: In order to measure production of superoxide in liver tissues of mice, dihydroethidium (DHE) was used as a superoxide fluorescent indicator. In summary, deparaffinized liver tissue slides were reacted at 37° C. for 30 minutes with 10 μM DHE in a light-shielded humidity chamber. After the reaction, fluorescence indicating DHE was measured through a filter in a wavelength band of 580 nm in an Olympus FV1000 fluorescence microscope.

NASH-induced model mouse [13] = assay: blood biochemical test: serum ALT, NASH-induced model; type: in vivo; conditions: for ALT: serum, HFD + Colchicine alone
Description: The activity of alanine aminotransferase (ALT) of mice was measured using an ALT activity assay kit (Sigma-Aldrich).

NASH-induced model mouse [14] = assay: blood biochemical test: serum AST, NASH-induced model; type: in vivo; conditions: for AST: serum, HFD + Colchicine alone
Description: The activity of aspartate aminotransferase (AST) of mice was measured using an AST activity assay kit (Abcam).

NASH-induced model mouse [15] = assay: blood biochemical test: serum total cholesterol, NASH-induced model; type: in vivo; conditions: for Total cholesterol: serum, HFD + Colchicine alone
Description: A total cholesterol amount of mice was measured using a Total cholesterol assay kit (Cell Biolabs). […] Thereafter, 50 μl of a cholesterol reaction reagent was added, and the reaction was performed at 37° C. for 45 minutes by shielding light. For the sample after the reaction, absorbance was measured at 540 to 570 nm using a microplate reader.

NASH-induced model mouse [16] = assay: blood biochemical test: serum triglyceride, NASH-induced model; type: in vivo; conditions: for Triglyceride: serum, HFD + Colchicine alone
Description: Triglyceride levels in mice were measured using an EZ-Triglyceride quantification assay kit (Dogen Bio). 1 ml of 5% NP-40 was added to a mouse serum sample, homogenized on ice, and then sufficiently cooled at room temperature. The sample in which all triglycerides were dissolved by heating once more was centrifuged at 13,000 rpm for 2 minutes, and then an insoluble material was removed, and the sample was diluted 10-fold with distilled water before assay. 2 μl of lipase was added to the sample dispensed in a 96 well plate by 90 μl and reacted for 20 minutes at room temperature, and then the reaction mixture was added to each sample by 50 μl, and further reacted at room temperature for 30 minutes in a light-shielded state. Thereafter, absorbance was measured at 570 nm using a microplate reader.

NASH-induced model mouse [17] = assay: blood biochemical test: serum bilirubin, NASH-induced model; conditions: for Bilirubin: serum, HFD + Colchicine alone
[18] = 5 nM colchicine alone, 0.2 mM palmitate after 8 hours, additional 16 hours
[19] = colchicine 40 μg/kg alone, orally once a day
[20] = co-administration with colchicine 40 μg/kg, for each sitagliptin concentration
[21] = co-administration with colchicine, for each sitagliptin concentration
[22] = high-fat diet 30 weeks, sitagliptin co-administered with colchicine by concentration

## COc1cc2c(c(OC)c1OC)-c1ccc(OC)c(=O)cc1[C@@H](NC(C)=O)CC2 [Colchicine, colchicine]
Collagen I [1]; 5 nM colchicine alone, TGF-β1 (5 ng/ml) after 8 hours, additional 16 hours
  expression of collagen I increased by TGF-β1: reduced
SREBP1 [2]; [18]
  expression of SREBP1 induced by palmitate: reduced
IL-1β [3]; [18]
  expression of IL-1β induced by palmitate: reduced
[4]; [19]
  fat accumulation in liver tissues (H&E): slightly reduced
NASH-induced model mouse [5]; [19]
  accumulation of hydroxyproline in liver tissues: reduced
TGF-β1; colchicine 40 μg/kg alone
  expression of TGF-β1 in liver tissues: reduced
Collagen I [6]; colchicine 40 μg/kg alone
  expression of collagen I in liver tissues: reduced
[7]; colchicine 40 μg/kg alone
  expression of α-SMA in liver tissues: reduced
TNF-α; colchicine 40 μg/kg alone
  expression of TNF-α in liver tissues: reduced
IL-1β [8]; colchicine 40 μg/kg alone
  expression of IL-1β in liver tissues: reduced
IL-6; colchicine 40 μg/kg alone
  expression of IL-6 in liver tissues: reduced
SREBP1 [9]; colchicine 40 μg/kg alone
  expression of SREBP1 in liver tissues: reduced
[10]; colchicine 40 μg/kg alone
  expression of Dgat in liver tissues: reduced
[11]; colchicine 40 μg/kg alone
  expression of ApoA1 in liver tissues: reduced
NASH-induced model mouse [12]; colchicine 40 μg/kg alone
  production of superoxide in liver tissues: reduced
NASH-induced model mouse [13]
  ALT: 154.7 ± 4.24 U/L
NASH-induced model mouse [13]; listed as colchicine
  ALT: decreased
NASH-induced model mouse [14]
  AST: 200.7 ± 2.74 U/L
NASH-induced model mouse [14]; listed as colchicine
  AST: decreased
NASH-induced model mouse [15]
  Total cholesterol: 264.8 ± 0.87 mg/dL
NASH-induced model mouse [15]; listed as colchicine
  Total cholesterol: decreased
NASH-induced model mouse [16]
  Triglyceride: 201.9 ± 0.27 mg/dL
NASH-induced model mouse [16]; listed as colchicine
  Triglyceride: decreased
NASH-induced model mouse [17]
  Bilirubin: 0.57 ± 0.05 mg/dL
NASH-induced model mouse [17]; listed as colchicine
  Bilirubin: decreased

## N#C[C@@H]1CCCN1C(=O)CNC12CC3CC(CC(O)(C3)C1)C2 [vildagliptin]
Collagen I [1]
  additive interaction with colchicine in inhibiting the expression of collagen I: slight additive interaction

## N[C@@H](CC(=O)N1CCn2c(nnc2C(F)(F)F)C1)Cc1cc(F)c(F)cc1F [sitagliptin]
Collagen I [1]
  additive interaction with colchicine in inhibiting the expression of collagen I: most excellent additive interaction
SREBP1 [2]
  additive interaction with colchicine in inhibiting the expression of SREBP1: most excellent additive interaction
IL-1β [3]; 5 nM colchicine + 30 μg/ml DPP-4 inhibitor, 0.2 mM palmitate
  additive interaction with colchicine in inhibiting the expression of IL-1β: most excellent additive interaction
[4]; [20]
  steatosis reduction effect, interaction with colchicine: additive interaction
NASH-induced model mouse [5]; [20]
  hydroxyproline inhibitory effect, interaction with colchicine: additive interaction
TGF-β1; [21]
  effect of reducing the expression of TGF-β1, interaction with colchicine: additive interaction
Collagen I [6]; [21]
  effect of reducing the expression of collagen I, interaction with colchicine: additive interaction
[7]; [21]
  effect of reducing the expression of α-SMA, interaction with colchicine: additive interaction
TNF-α; [21]
  effect of reducing the expression of TNF-α, interaction with colchicine: additive interaction
IL-1β [8]; [21]
  effect of reducing the expression of IL-1β, interaction with colchicine: additive interaction
IL-6; [21]
  effect of reducing the expression of IL-6, interaction with colchicine: additive interaction
SREBP1 [9]; [21]
  effect of reducing the expression of SREBP1, interaction with colchicine: additive interaction
[10]; [21]
  effect of reducing the expression of Dgat, interaction with colchicine: additive interaction
[11]; [21]
  effect of reducing the expression of ApoA1, interaction with colchicine: additive interaction
NASH-induced model mouse [12]; [21]
  effect of reducing the production of superoxide, interaction with colchicine: additive interaction
NASH-induced model mouse [13]; [22]
  level of ALT in serum, additive interaction compared with colchicine alone: decreases further
NASH-induced model mouse [14]; [22]
  level of AST in serum, additive interaction compared with colchicine alone: decreases further
NASH-induced model mouse [15]; [22]
  level of cholesterol in serum, additive interaction compared with colchicine alone: decreases further
NASH-induced model mouse [16]; [22]
  level of triglyceride in serum, additive interaction compared with colchicine alone: decreases further
NASH-induced model mouse [17]; [22]
  level of bilirubin in serum, additive interaction compared with colchicine alone: decreases further

## CC(C)(C)OC[C@@H]1C(=O)NCCN1C(=O)C[C@H](N)Cc1cc(F)c(F)cc1F [evogliptin]
Collagen I [1]
  additive interaction with colchicine in inhibiting the expression of collagen I: slight additive interaction

## Cc1cc(N2CCN([C@@H]3CN[C@H](C(=O)N4CCSC4)C3)CC2)n(-c2ccccc2)n1 [teneligliptin]
Collagen I [1]
  additive interaction with colchicine in inhibiting the expression of collagen I: slight additive interaction
SREBP1 [2]
  additive interaction with colchicine in inhibiting the expression of SREBP1: excluding
